The results in this text go back to US20080207617A1, “Quinoline Derivatives and Quinazoline Derivatives Inhibiting Autophosphrylation of Flt3 and Medicinal Compositions Containing the Same” (KIRIN BEER KABUSHIKI KAISHA, priority 2002, published 2008).

Assay [1] concerns MV4-11. Nature of the assay: Cell growth inhibitory test MV4-11 (WST-1). In kind it is cell-based, human. To be noted: Homo sapiens, MV4-11, 72 h, MV4-11 cells, 3 days culture. As to the method: Pharmacological Test Example 2
Cell Growth Inhibitory Test
MV4-11 (ATCC number: CRL-9591) as human leukemia cells was seeded in an amount of 3×10^3 using a DMEM medium containing 10% fetal calf serum (purchased from GIBCO) in a 96-well flat bottom plate.
(§1) A solution of a test compound in dimethyl sulfoxide was added to each well and was cultured in a 5% carbon dioxide incubator for 3 days. Three days after the initiation of the culture, 10 μl of a WST-1 solution in Cell Counting Kit (purchased from Wako Pure Chemical Industries, Ltd.) was added to each well for a color reaction. After proper color development, the absorbance was measured with a microplate reader under conditions of measurement wavelength 450 nm and reference wavelength 650 nm. The growth ratio for each well was determined by presuming the absorbance without the addition of the medicament to be 100% growth ratio and the absorbance of the well without seeding of the cells to be 0% growth ratio. The concentration of the test compound was varied on several levels, the cell growth ratio for each case was determined, and the concentration of the test compound necessary for inhibiting 50% of cell growth ratio (IC50) was calculated.
On the technique in general: Tetrazolium dyes change colour on reduction, which living cells bring about.

Assay [2] relates to MOLM13. Briefly: Cell growth inhibitory activity using MTT method (MOLM13). In kind it is cell-based, human. The following applies: Homo sapiens, MOLM-13, 72 h, MOLM13 cells. As to the method:
Pharmacological Test Example 3
Measurement of Cell Growth Inhibitory Activity Using MTT Method
Human leukemia cell line MOLM13 (subdivided from Hayashibara Biochemical Laboratories, Inc.) was cultured in an RPMI medium containing 10% fetal calf serum (purchased from Asahi Techno Glass Corporation) within a 5% carbon dioxide incubator until the cell density reached 50 to 90% of the maximum cell density. These cells were seeded into wells, containing an RPMI medium containing 10% fetal calf serum, in a 96-well flat bottom plate in an amount of […] per well. The amount of the solution of the medium in each well was brought to 100 μl, and a test compound was added thereto to 500 ng, 100 ng, 20 ng, and 4 ng per ml. After culture within an incubator for 72 hr, 10 μl of a 5 mg/ml MTT (3-(4,5-dimethylthiazol-2-yl)-2,5-diphenyl tetrazolium bromide) solution (purchased from SIGMA) was added to the medium, and a reaction was allowed to proceed for 4 hr. Thereafter, 100 μl of a 0.04 N hydrochloric acid-isopropanol solution was added to completely dissolve the resultant MTT formazan crystal. After the dissolution, absorbance at 550 nm was measured using 620 nm as a reference wavelength with a microplate reader (DIGISCAN) (It is regarded that, in the MTT method, the viable cell count is reflected, and linearity is observed in a cell count per well range of 5×10^5 to 2×10^2 cells). After 72 hr, the absorbance of only the medium free from cells was subtracted from the absorbance of the well without the addition of the test compound to determine a value which was presumed to be 100%. On the other hand, the absorbance with the addition of the compound was expressed in terms of % growth.

The subject of assay [3] is MOLM13. Briefly: Cell growth inhibitory activities on cultured human leukemia cells MOLM-13 (WST-1). To be noted: Homo sapiens, MOLM-13, 72 h, 3 days culture. The class given is cell-based. On the procedure:
Pharmacological Test Example 4
Cell Growth Inhibitory Activities on Cultured Human Leukemia Cells
as §1, with “Human leukemia cells MOLM13 (subdivided from Hayashibara Biochemical Laboratories, Inc.) were seeded in an amount of 3×10^3 using a DMEM medium containing 10% fetal calf serum (purchased from GIBCO) in a 96-well flat bottom plate. A solution” for “A solution”

Structures are written as SMILES. Structures can show the parent of a compound that is named as a salt.

As a reminder, the IC50 is the concentration that inhibits the measured activity by half. For `COc1cc2nccc(Oc3ccc(NC(=O)NCCC(C)(C)C)cc3)c2cc1OCCN1CCOCC1` [Compound 68, 1-(3,3-Dimethyl-butyl)-3-{4-[7-methoxy-6-(2-morpholin-4-yl-ethoxy)-quinolin-4-yloxy]-phenyl}-urea], the concentration for half-maximal inhibition (IC50) was less than 1 nM in assay [1], 13.3 nM in assay [2] and 1 nM in assay [3].
In the case of `COc1cc2nccc(Oc3ccc(NC(=O)NCCC4CCCC4)cc3F)c2cc1OC` [Compound 18, 1-(2-Cyclopentyl-ethyl)-3-[4-(6,7-dimethoxy-quinolin-4-yloxy)-3-fluoro-phenyl]-urea], the IC50 in assay [1] was determined as 1 nM; in assay [2] it was 40.3 nM; in assay [3] it was 2 nM.
For `COc1cc2c(Oc3ccc(NC(=O)NC4CC(C)CC(C)(C)C4)c(F)c3)ccnc2cc1OCCN1CCCCC1` (centres unmarked) [Compound 57, 1-{2-Fluoro-4-[6-methoxy-7-(2-piperidin-1-yl-ethoxy)-quinolin-4-yloxy]-phenyl}-3-(3,3,5-trimethyl-cyclohexyl)-urea], in that order: 19 nM, 120 nM and 29 nM.
Consider `COc1cc2nccc(Oc3ccc(NC(=O)NCCC4CCCCC4)cc3Cl)c2cc1OC` [Compound 17, 1-[3-Chloro-4-(6,7-dimethoxy-quinolin-4-yloxy)-phenyl]-3-(2-cyclohexyl-ethyl)-urea], for which the figures for the IC50 in assay [1], in assay [2] and in assay [3] were 17 nM, 20.5 nM and 27 nM, respectively.
On to `COc1cc2c(Oc3ccc(NC(=O)NC4CCCC(C)(C)C4)cc3F)ccnc2cc1OCCN1CCCCC1` (centres unmarked) [Compound 55, 1-(3,3-Dimethyl-cyclohexyl)-3-{3-fluoro-4-[6-methoxy-7-(2-piperidin-1-yl-ethoxy)-quinolin-4-yloxy]-phenyl}-urea], for which the concentration for half-maximal inhibition (IC50) is 6 nM in assay [1], 36.8 nM in assay [2] and 25 nM in assay [3].
Consider `COc1cc2nccc(Oc3ccc(NC(=O)NCCC(C)(C)C)c(Cl)c3)c2cc1OC` [Compound 11, 1-[2-Chloro-4-(6,7-dimethoxy-quinolin-4-yloxy)-phenyl]-3-(3,3-dimethyl-butyl)-urea hydrochloride], for which the IC50 amounted to 300 nM in assay [1] and 416 nM in assay [3].
In the same order, the values of `COc1cc2nccc(Oc3ccc(NC(=O)NCCCC(C)C)cc3)c2cc1OC` [Compound 34, 1-[4-(6,7-Dimethoxy-quinolin-4-yloxy)-phenyl]-3-(4-methyl-pentyl)-urea] are less than 1 nM and 2 nM.
In the same order, the values of `COc1cc2nccc(Oc3ccc(NC(=O)NCC4CCCCC4)cc3)c2cc1OC` [Compound 30, 1-Cyclohexylmethyl-3-[4-(6,7-dimethoxy-quinolin-4-yloxy)-phenyl]-urea] are 4 nM and 8 nM.
Regarding `CCCCCCNC(=O)Nc1ccc(Oc2ccnc3cc(OC)c(OC)cc23)cc1` [Compound 22, 1-[4-(6,7-Dimethoxy-quinolin-4-yloxy)-phenyl]-3-hexyl-urea], the IC50 in assay [1] turned out to be 4 nM; in assay [3], 7 nM.
With `COc1cc2c(Oc3ccc(NC(=O)NCCC(C)(C)C)c(Cl)c3)ccnc2cc1OCCN1CCCCC1` [Compound 42, 1-{2-Chloro-4-[6-methoxy-7-(2-piperidin-1-yl-ethoxy)-quinolin-4-yloxy]-phenyl}-3-(3,3-dimethyl-butyl)-urea], the IC50 in assay [1] is 235 nM; in assay [3], 273 nM.
In the case of `COc1cc2nccc(Oc3ccc(NC(=O)NCCC(C)(C)CO)cc3)c2cc1OC` [Compound 39, 1-[4-(6,7-Dimethoxy-quinolin-4-yloxy)-phenyl]-3-(4-hydroxy-3,3-dimethyl-butyl)-urea], the IC50 in assay [1] was less than 1 nM; in assay [3], 3 nM.
Turning to `COc1cc2nccc(Oc3ccc(NC(=O)NCCC(C)(C)C)c(C)c3)c2cc1OC` [Compound 2, 1-[4-(6,7-Dimethoxy-quinolin-4-yloxy)-2-methyl-phenyl]-3-(3,3-dimethyl-butyl)-urea], the half-inhibitory concentration (IC50) came out at 395 nM in assay [1] and 770 nM in assay [3].
